Test results published in PMC10178848, “Modulating fast skeletal muscle contraction protects skeletal muscle in animal models of Duchenne muscular dystrophy” (The Journal of Clinical Investigation, 2023).
Read-outs that look alike come from different tables or passages of the source.

Tested on: GRMD plasma proteins
Format: in vivo, dog
[1] = EDG-5506 treatment to GRMD baseline, Increased in GRMD

O=c1ccc(-c2cnc(OCC(F)(F)F)nc2)nn1Cc1cncc(F)c1 [EDG-5506]
Change from GRMD Baseline (fraction): Tyrosine-protein kinase Yes (YES1) [1]: -0.1382 fraction
Change from GRMD Baseline (fraction): Tyrosine-protein kinase ZAP-70 (ZAP70) [1]: -0.1508 fraction
Change from GRMD Baseline (fraction): Tyrosine-protein phosphatase non-receptor type 1 (PTPN1) [1]: -0.1492 fraction
Change from GRMD Baseline (fraction): Tyrosine-protein phosphatase non-receptor type 11 (PTPN11) [1]: -0.1298 fraction
Change from GRMD Baseline (fraction): UMP-CMP kinase (CMPK1) [1]: -0.0444 fraction
Change from GRMD Baseline (fraction): Ubiquitin carboxyl-terminal hydrolase 25 (USP25) [1]: -0.1723 fraction
Change from GRMD Baseline (fraction): Ubiquitin carboxyl-terminal hydrolase isozyme L1 (UCHL1) [1]: -0.1135 fraction
Change from GRMD Baseline (fraction): Ubiquitin-fold modifier 1 (UFM1) [1]: -0.238 fraction
Change from GRMD Baseline (fraction): Vascular cell adhesion protein 1 (VCAM1) [1]: -0.0642 fraction
Change from GRMD Baseline (fraction): Vitamin K-dependent protein C (PROC) [1]: -0.2124 fraction
Change from GRMD Baseline (fraction): Vitronectin (VTN) [1]: -0.1269 fraction
Change from GRMD Baseline (fraction): cAMP-dependent protein kinase catalytic subunit alpha (PRKACA) [1]: -0.4297 fraction
Change from GRMD Baseline (fraction): dCTP pyrophosphatase 1 (DCTPP1) [1]: -0.2045 fraction
Chitotriosidase-1 (CHIT1): Change from GRMD Baseline (fraction) [1]: -0.0569 fraction
Chorionic somatomammotropin hormone (CSH1 CSH2): Change from GRMD Baseline (fraction) [1]: -0.0697 fraction
Chromobox protein homolog 5 (CBX5): Change from GRMD Baseline (fraction) [1]: -0.0792 fraction
Coagulation Factor X (F10): Change from GRMD Baseline (fraction) [1]: 0.1015 fraction
Coagulation factor IX (F9): Change from GRMD Baseline (fraction) [1]: 0.0746 fraction
Complement component 1 Q subcomponent-binding protein, mitochondrial (C1QBP): Change from GRMD Baseline (fraction) [1]: -0.0848 fraction
Connective tissue growth factor (CTGF): Change from GRMD Baseline (fraction) [1]: -0.0649 fraction
Cyclin-dependent kinase 1:G2/mitotic-specific cyclin-B1 complex (CDC2 CCNB1): Change from GRMD Baseline (fraction) [1]: -0.037 fraction
Cyclin-dependent kinase 5:Cyclin-dependent kinase 5 activator 1 complex (CDK5 CDK5R1): Change from GRMD Baseline (fraction) [1]: -0.0717 fraction
Cytokine receptor-like factor 1:Cardiotrophin-like cytokine factor 1 Complex (CRLF1 CLCF1): Change from GRMD Baseline (fraction) [1]: 0.1068 fraction
Dual 3',5'-cyclic-AMP and -GMP phosphodiesterase 11A (PDE11A): Change from GRMD Baseline (fraction) [1]: 0.0578 fraction
Ectodysplasin-A, secreted form (EDA): Change from GRMD Baseline (fraction) [1]: -0.0132 fraction
Endothelial cell-selective adhesion molecule (ESAM): Change from GRMD Baseline (fraction) [1]: 0.0149 fraction
Endothelial monocyte-activating polypeptide 2 (AIMP1): Change from GRMD Baseline (fraction) [1]: -0.1718 fraction
Extracellular superoxide dismutase [Cu-Zn] (SOD3): Change from GRMD Baseline (fraction) [1]: -0.0256 fraction
Ficolin-2 (FCN2): Change from GRMD Baseline (fraction) [1]: -0.1165 fraction
Fms-related tyrosine kinase 3 ligand (FLT3LG): Change from GRMD Baseline (fraction) [1]: -0.0844 fraction
Galactoside 3(4)-L-fucosyltransferase (FUT3): Change from GRMD Baseline (fraction) [1]: 0.0031 fraction
Galectin-10 (CLC): Change from GRMD Baseline (fraction) [1]: 0.0351 fraction
Glial fibrillary acidic protein (GFAP): Change from GRMD Baseline (fraction) [1]: -0.0103 fraction
Glycylpeptide N-tetradecanoyltransferase 1 (NMT1): Change from GRMD Baseline (fraction) [1]: -0.1333 fraction
Group 10 secretory phospholipase A2 (PLA2G10): Change from GRMD Baseline (fraction) [1]: 0.0049 fraction
Growth hormone receptor (GHR): Change from GRMD Baseline (fraction) [1]: -0.0293 fraction
Growth-regulated alpha protein (CXCL1): Change from GRMD Baseline (fraction) [1]: -0.0678 fraction
Growth/differentiation factor 15 (GDF15): Change from GRMD Baseline (fraction) [1]: -0.0948 fraction
Hepatocyte growth factor (HGF): Change from GRMD Baseline (fraction) [1]: -0.0495 fraction
Hepcidin (HAMP): Change from GRMD Baseline (fraction) [1]: -0.0269 fraction
Immunoglobulin M (IGHM IGJ IGK@ IGL@): Change from GRMD Baseline (fraction) [1]: -0.1429 fraction
Importin subunit alpha-1 (KPNA2): Change from GRMD Baseline (fraction) [1]: -0.0896 fraction
Induced myeloid leukemia cell differentiation protein Mcl-1 (MCL1): Change from GRMD Baseline (fraction) [1]: -0.0522 fraction
Inorganic pyrophosphatase (PPA1): Change from GRMD Baseline (fraction) [1]: -0.2863 fraction
Insulin-like growth factor-binding protein 7 (IGFBP7): Change from GRMD Baseline (fraction) [1]: -0.0264 fraction
Integrin alpha-IIb: beta-3 complex (ITGA2B ITGB3): Change from GRMD Baseline (fraction) [1]: -0.0613 fraction
Interleukin-4 (IL4): Change from GRMD Baseline (fraction) [1]: -0.0475 fraction
Interleukin-6 receptor subunit beta (IL6ST): Change from GRMD Baseline (fraction) [1]: 0.0395 fraction
Interleukin-8 (CXCL8): Change from GRMD Baseline (fraction) [1]: -0.0542 fraction
Interleukin-10 receptor subunit beta (IL10RB): Change from GRMD Baseline (fraction) [1]: -0.0725 fraction
Interleukin-17 receptor C (IL17RC): Change from GRMD Baseline (fraction) [1]: -0.0346 fraction
Interleukin-18 receptor accessory protein (IL18RAP): Change from GRMD Baseline (fraction) [1]: -0.0372 fraction
Interleukin-27 (IL27 EBI3): Change from GRMD Baseline (fraction) [1]: -0.0259 fraction
Interleukin-36 beta (IL36B): Change from GRMD Baseline (fraction) [1]: -0.0479 fraction
Killer cell immunoglobulin-like receptor 3DS1 (KIR3DS1): Change from GRMD Baseline (fraction) [1]: 0.0065 fraction
Killer cell lectin-like receptor subfamily F member 1 (KLRF1): Change from GRMD Baseline (fraction) [1]: -0.0162 fraction
Lamin-B1 (LMNB1): Change from GRMD Baseline (fraction) [1]: 0.0054 fraction
Laminin (LAMA1 LAMB1 LAMC1): Change from GRMD Baseline (fraction) [1]: -0.1316 fraction
Low-density lipoprotein receptor-related protein 1B (LRP1B): Change from GRMD Baseline (fraction) [1]: -0.0892 fraction
Macrophage-stimulating protein receptor (MST1R): Change from GRMD Baseline (fraction) [1]: -0.0588 fraction
Matrilin-3 (MATN3): Change from GRMD Baseline (fraction) [1]: -0.1231 fraction
Matrilysin (MMP7): Change from GRMD Baseline (fraction) [1]: -0.0308 fraction
N-terminal pro-BNP (NPPB): Change from GRMD Baseline (fraction) [1]: -0.0602 fraction
NKG2D ligand 3 (ULBP3): Change from GRMD Baseline (fraction) [1]: -0.0822 fraction
Neural cell adhesion molecule L1-like protein (CHL1): Change from GRMD Baseline (fraction) [1]: -0.0329 fraction
Neurexophilin-1 (NXPH1): Change from GRMD Baseline (fraction) [1]: -0.0271 fraction
OX-2 membrane glycoprotein (CD200): Change from GRMD Baseline (fraction) [1]: -0.0611 fraction
Persephin (PSPN): Change from GRMD Baseline (fraction) [1]: -0.013 fraction
Phosphatidylinositol 4,5-bisphosphate 3-kinase catalytic subunit gamma isoform (PIK3CG): Change from GRMD Baseline (fraction) [1]: -0.1006 fraction
Pituitary adenylate cyclase-activating polypeptide 27 (ADCYAP1): Change from GRMD Baseline (fraction) [1]: 0.1436 fraction
Platelet factor 4 (PF4): Change from GRMD Baseline (fraction) [1]: -0.1659 fraction
Platelet glycoprotein VI (GP6): Change from GRMD Baseline (fraction) [1]: 0.0008 fraction
Prolactin (PRL): Change from GRMD Baseline (fraction) [1]: -0.0751 fraction
Prolactin receptor (PRLR): Change from GRMD Baseline (fraction) [1]: -0.064 fraction
Proteasome subunit alpha type-6 (PSMA6): Change from GRMD Baseline (fraction) [1]: -0.0773 fraction
Protein E7_HPV18 (Human-virus): Change from GRMD Baseline (fraction) [1]: -0.1102 fraction
Proto-oncogene tyrosine-protein kinase receptor Ret (RET): Change from GRMD Baseline (fraction) [1]: -0.0388 fraction
RNA-binding protein 39 (RBM39): Change from GRMD Baseline (fraction) [1]: -0.0705 fraction
Ras GTPase-activating protein 1 (RASA1): Change from GRMD Baseline (fraction) [1]: -0.1536 fraction
Ribosome maturation protein SBDS (SBDS): Change from GRMD Baseline (fraction) [1]: -0.2649 fraction
SPARC-related modular calcium-binding protein 1 (SMOC1): Change from GRMD Baseline (fraction) [1]: -0.0553 fraction
Secreted and transmembrane protein 1 (SECTM1): Change from GRMD Baseline (fraction) [1]: -0.0267 fraction
Serine/threonine-protein kinase PAK 3 (PAK3): Change from GRMD Baseline (fraction) [1]: -0.1036 fraction
Serine/threonine-protein kinase PAK 7 (PAK7): Change from GRMD Baseline (fraction) [1]: -0.037 fraction
Serine/threonine-protein kinase pim-1 (PIM1): Change from GRMD Baseline (fraction) [1]: -0.0646 fraction
Serum amyloid A-1 protein (SAA1): Change from GRMD Baseline (fraction) [1]: -0.1842 fraction
Sialic acid-binding Ig-like lectin 7 (SIGLEC7): Change from GRMD Baseline (fraction) [1]: -0.0326 fraction
Small ubiquitin-related modifier 3 (SUMO3): Change from GRMD Baseline (fraction) [1]: -0.2515 fraction
Stromelysin-1 (MMP3): Change from GRMD Baseline (fraction) [1]: 0.0153 fraction
Stromelysin-2 (MMP10): Change from GRMD Baseline (fraction) [1]: -0.0419 fraction
Synaptosomal-associated protein 25 (SNAP25): Change from GRMD Baseline (fraction) [1]: 0.0795 fraction
T-cell surface glycoprotein CD4 (CD4): Change from GRMD Baseline (fraction) [1]: -0.0326 fraction
T-lymphocyte activation antigen CD86 (CD86): Change from GRMD Baseline (fraction) [1]: -0.0169 fraction
TATA-box-binding protein (TBP): Change from GRMD Baseline (fraction) [1]: -0.0838 fraction
Thyroxine-binding globulin (SERPINA7): Change from GRMD Baseline (fraction) [1]: 0.0123 fraction
Transcription factor IIIB 90 kDa subunit (BRF1): Change from GRMD Baseline (fraction) [1]: -0.0779 fraction
Tumor necrosis factor ligand superfamily member 18 (TNFSF18): Change from GRMD Baseline (fraction) [1]: -0.0886 fraction
Tumor necrosis factor receptor superfamily member 13B (TNFRSF13B): Change from GRMD Baseline (fraction) [1]: -0.1006 fraction
Tumor necrosis factor receptor superfamily member 13C (TNFRSF13C): Change from GRMD Baseline (fraction) [1]: 0.0816 fraction
Tumor-associated calcium signal transducer 2 (TACSTD2): Change from GRMD Baseline (fraction) [1]: -0.0508 fraction
Ubiquitin-conjugating enzyme E2 G2 (UBE2G2): Change from GRMD Baseline (fraction) [1]: 0.0044 fraction
WNT1-inducible-signaling pathway protein 1 (WISP1): Change from GRMD Baseline (fraction) [1]: -0.2187 fraction
WNT1-inducible-signaling pathway protein 3 (WISP3): Change from GRMD Baseline (fraction) [1]: -0.0425 fraction
alpha-2-macroglobulin receptor-associated protein (LRPAP1): Change from GRMD Baseline (fraction) [1]: -0.1071 fraction
cGMP-dependent 3',5'-cyclic phosphodiesterase (PDE2A): Change from GRMD Baseline (fraction) [1]: -0.1496 fraction
Change from GRMD Baseline (fraction) (Endothelial cell-specific molecule 1 (ESM1), EDG-5506 treatment to GRMD baseline): -0.0233 fraction
Change from GRMD Baseline (fraction) (Endothelial cell-specific molecule 1 (ESM1), Post-Treatment to GRMD baseline): -0.0289 fraction
Change from GRMD Baseline (fraction) (Ephrin-B3 (EFNB3), EDG-5506 treatment to GRMD baseline): 0.1026 fraction
Change from GRMD Baseline (fraction) (Ephrin-B3 (EFNB3), Post-Treatment to GRMD baseline): -0.0272 fraction
Change from GRMD Baseline (fraction) (Eukaryotic translation initiation factor 4E-binding protein 2 (EIF4EBP2), EDG-5506 treatment to GRMD baseline): 0.16 fraction
Change from GRMD Baseline (fraction) (Eukaryotic translation initiation factor 4E-binding protein 2 (EIF4EBP2), Post-Treatment to GRMD baseline): 0.0377 fraction
common DMD plasma proteomic signature (GRMD plasma, Somascan): significantly reversed this common DMD signature
Change from GRMD Baseline (fraction) (Glutathione S-transferase A3 (GSTA3), EDG-5506 treatment to GRMD baseline): 0.0601 fraction
Change from GRMD Baseline (fraction) (Glutathione S-transferase A3 (GSTA3), Post-Treatment to GRMD baseline): 1.476 fraction
Change from GRMD Baseline (fraction) (Heparan-sulfate 6-O-sulfotransferase 1 (HS6ST1), EDG-5506 treatment to GRMD baseline): 0.0701 fraction
Change from GRMD Baseline (fraction) (Heparan-sulfate 6-O-sulfotransferase 1 (HS6ST1), Post-Treatment to GRMD baseline): -0.1313 fraction
Change from GRMD Baseline (fraction) (Histone H3.1 (HIST1H3A), EDG-5506 treatment to GRMD baseline): 0.1658 fraction
Change from GRMD Baseline (fraction) (Histone H3.1 (HIST1H3A), Post-Treatment to GRMD baseline): 0.0723 fraction
Change from GRMD Baseline (fraction) (Human Chorionic Gonadotropin (CGA CGB), EDG-5506 treatment to GRMD baseline): 0.1653 fraction
